Read-outs that look alike come from different tables or passages of the source.
What was measured:
Assay in all cases: TEVC current recordings from Xenopus oocytes, channel blocker inhibition
Type in all cases: cell-based
WT GluN1/GluN2A = WT GluN1/GluN2A (Homo sapiens, UniProt Q05586+Q12879); conditions: for IC50: IC50, WT GluN1/WT 2A, holding −40 mV; for % inhibition: WT GluN1/WT 2A, 300 μM blocker, −40 mV
GluN1-G620R/GluN2A = GluN1-G620R/GluN2A (Homo sapiens, UniProt Q05586+Q12879, G620R); conditions: for % inhibition: 1-G620R/2A, 300 μM blocker, −40 mV; for IC50: IC50, 1-G620R/2A, holding −40 mV
GluN1/GluN2A-L611Q = GluN1/GluN2A-L611Q (Homo sapiens, UniProt Q05586+Q12879, L611Q); conditions: for % inhibition: 2A-L611Q, 300 μM blocker, −40 mV; for IC50: IC50, 2A-L611Q, holding −40 mV
[1] = target: GluN2A-N614S-containing NMDARs (Homo sapiens, UniProt Q05586+Q12879, N614S); conditions: for % inhibition: 2A-N614S, 300 μM blocker, −40 mV; for IC50: IC50, 2A-N614S, holding −40 mV
[2] = target: GluN2A-N615K-containing NMDARs (Homo sapiens, UniProt Q05586+Q12879, N615K); conditions: for % inhibition: 2A-N615K, 300 μM blocker, −40 mV; for IC50: IC50, 2A-N615K, holding −40 mV
WT GluN1/GluN2B = WT GluN1/GluN2B (Homo sapiens, UniProt Q05586+Q13224); conditions: for IC50: IC50, WT GluN1/WT 2B, holding −40 mV; for % inhibition: WT GluN1/WT 2B, 300 μM blocker, −40 mV
[3] = target: GluN2B-W607C-containing NMDARs (Homo sapiens, UniProt Q05586+Q13224, W607C); conditions: for % inhibition: 2B-W607C, 300 μM blocker, −40 mV; for IC50: IC50, 2B-W607C, holding −40 mV
[4] = target: GluN2B-G611V-containing NMDARs (Homo sapiens, UniProt Q05586+Q13224, G611V); conditions: for % inhibition: 2B-G611V, 300 μM blocker, −40 mV; for IC50: IC50, 2B-G611V, holding −40 mV
GluN1/GluN2B-N615I = GluN1/GluN2B-N615I (Homo sapiens, UniProt Q05586+Q13224, N615I); conditions: for % inhibition: 2B-N615I, 300 μM blocker, −40 mV; for IC50: IC50, 2B-N615I, holding −40 mV
GluN1/GluN2B-N615K = GluN1/GluN2B-N615K (Homo sapiens, UniProt Q05586+Q13224, N615K); conditions: for % inhibition: 300 μM blocker, −40 mV
[5] = target: GluN2B-N616K-containing NMDARs (Homo sapiens, UniProt Q05586+Q13224, N616K); conditions: for % inhibition: 2B-N616K, 300 μM blocker, −40 mV; for IC50: IC50, 2B-N616K, holding −40 mV
[6] = target: GluN2B-V618G-containing NMDARs (Homo sapiens, UniProt Q05586+Q13224, V618G); conditions: for % inhibition: 2B-V618G, 300 μM blocker, −40 mV; for IC50: IC50, 2B-V618G, holding −40 mV
[7] = target: GluN2B-V620M-containing NMDARs (Homo sapiens, UniProt Q05586+Q13224, V620M); conditions: for % inhibition: 2B-V620M, 300 μM blocker, −40 mV; for IC50: IC50, 2B-V620M, holding −40 mV

COc1ccc2c(c1)[C@]13CCCC[C@@H]1[C@H](C2)N(C)CC3 [dextromethorphan]
IC50 (WT GluN1/GluN2A; w/ 1 mM Mg^2+): 25 µM | IC50 (WT GluN1/GluN2A; w/o Mg^2+): 11 µM | % inhibition (WT GluN1/GluN2A; w/ 1 mM Mg^2+): 88 ± 3.3% (10) | % inhibition (WT GluN1/GluN2A; w/o Mg^2+): 95 ± 1.6% (19) | % inhibition (GluN1-G620R/GluN2A; w/ 1 mM Mg^2+): 96 ± 1.5% (8)^¥ | % inhibition (GluN1-G620R/GluN2A; w/o Mg^2+): 97 ± 1.4% (14) | enhanced potency in comparison to WT NMDARs (GluN1-G620R/GluN2A; GluN1-G620R, absence of Mg^2+): 2.5 fold | enhanced potency compared to the WT receptors (GluN1-G620R/GluN2A; GluN1-G620R, presence of 1 mM Mg^2+): 5.7 fold | IC50 (GluN1-G620R/GluN2A; w/ 1 mM Mg^2+): 4.4 µM | IC50 (GluN1-G620R/GluN2A; w/o Mg^2+): 4.4 µM | % inhibition (GluN1/GluN2A-L611Q; w/ 1 mM Mg^2+): 89 ± 2.3% (8) | % inhibition (GluN1/GluN2A-L611Q; w/o Mg^2+): 91 ± 1.4% (16) | IC50 (GluN1/GluN2A-L611Q; w/ 1 mM Mg^2+): 36 µM | IC50 (GluN1/GluN2A-L611Q; w/o Mg^2+): 27 µM | % inhibition ([1]; w/ 1 mM Mg^2+): 85 ± 2.7% (11) | % inhibition ([1]; w/o Mg^2+): 85 ± 3.0% (10)^¥ | IC50 ([1]; w/ 1 mM Mg^2+): 32 µM | IC50 ([1]; w/o Mg^2+): 22 µM | % inhibition ([2]; w/ 1 mM Mg^2+): 97 ± 0.9% (12)^¥ | % inhibition ([2]; w/o Mg^2+): 98 ± 1.4% (8) | enhanced potency in comparison to WT NMDARs ([2]; GluN2A-N615K, absence of Mg^2+): 2.7 fold | enhanced potency compared to the WT receptors ([2]; GluN2A-N615K, presence of 1 mM Mg^2+): 8.3 fold | IC50 ([2]; w/ 1 mM Mg^2+): 3 µM | IC50 ([2]; w/o Mg^2+): 3.8 µM | IC50 (WT GluN1/GluN2B; w/ 1 mM Mg^2+): 22 µM | IC50 (WT GluN1/GluN2B; w/o Mg^2+): 4.8 µM | % inhibition (WT GluN1/GluN2B; w/ 1 mM Mg^2+): 90 ± 1.9% (18) | % inhibition (WT GluN1/GluN2B; w/o Mg^2+): 95 ± 1.2% (15) | % inhibition ([3]; w/ 1 mM Mg^2+): 95 ± 1.4% (12) | % inhibition ([3]; w/o Mg^2+): 90 ± 2.8% (11) | reduced potency in 1 mM Mg^2+ vs absence of Mg^2+ ([3]; GluN2B-W607C): 3 fold | IC50 ([3]; w/ 1 mM Mg^2+): 11 µM | IC50 ([3]; w/o Mg^2+): 3.7 µM | % inhibition ([4]; w/ 1 mM Mg^2+): 97 ± 1.0% (10) | % inhibition ([4]; w/o Mg^2+): 94 ± 2.3% (10) | enhanced potency compared to the WT receptors ([4]; GluN2B-G611V, presence of 1 mM Mg^2+): 3.5 fold | IC50 ([4]; w/ 1 mM Mg^2+): 6.2 µM | IC50 ([4]; w/o Mg^2+): 3.6 µM | % inhibition (GluN1/GluN2B-N615I; w/ 1 mM Mg^2+): 94 ± 1.5% (11) | % inhibition (GluN1/GluN2B-N615I; w/o Mg^2+): 95 ± 1.4% (14) | IC50 (GluN1/GluN2B-N615I; w/ 1 mM Mg^2+): 17 µM | IC50 (GluN1/GluN2B-N615I; w/o Mg^2+): 15 µM | IC50 (GluN1/GluN2B-N615K): > 300 µM | % inhibition (GluN1/GluN2B-N615K; 2B-N615K, w/ 1 mM Mg^2+): 33 ± 3.7% (18) ^*^¥ | % inhibition (GluN1/GluN2B-N615K; 2B-N615K, w/o Mg^2+): 14 ± 2.7% (8)^¥ | IC50 (GluN1/GluN2B-N615K; 2B-N615K, w/ 1 mM Mg^2+, holding −40 mV): > 300 µM | % inhibition ([5]; w/ 1 mM Mg^2+): 93 ± 1.6% (7) | % inhibition ([5]; w/o Mg^2+): 94 ± 1.7% (10) | enhanced potency compared to the WT receptors ([5]; GluN2B-N616K, presence of 1 mM Mg^2+): 4.9 fold | IC50 ([5]; w/ 1 mM Mg^2+): 4.5 µM | IC50 ([5]; w/o Mg^2+): 3.2 µM | % inhibition ([6]; w/ 1 mM Mg^2+): 83 ± 4.0% (10) | % inhibition ([6]; w/o Mg^2+): 85 ± 1.7% (11)^¥ | reduced potency compared to the WT receptors ([6]; GluN2B-V618G, presence of 1 mM Mg^2+): 3.2 fold | IC50 ([6]; w/ 1 mM Mg^2+): 71 µM | IC50 ([6]; w/o Mg^2+): 45 µM | % inhibition ([7]; w/ 1 mM Mg^2+): 87 ± 3.2% (8) | % inhibition ([7]; w/o Mg^2+): 93 ± 3.2% (8) | enhanced potency in comparison to WT NMDARs ([7]; GluN2B-V620M, absence of Mg^2+): 2.7 fold | enhanced potency compared to the WT receptors ([7]; GluN2B-V620M, presence of 1 mM Mg^2+): 6.3 fold | IC50 ([7]; w/ 1 mM Mg^2+): 3.5 µM | IC50 ([7]; w/o Mg^2+): 1.8 µM

— paper PMC10902181 (Journal of neurochemistry, 2023)
